Measurements: the NIST ThermoML archive (doi:10.1016/j.jct.2015.05.024)
Numbers after ± are expanded uncertainties.

Assays:
[1] = 100 kPa, Liquid; for mass density: Vibrating tube method; for speed of sound: Frequency=5 MHz, Pulse-echo method
[2] = xn = mol fraction of the nth substance listed; conditions: 100 kPa, Liquid, x2 = 0; for mass density: Vibrating tube method; for speed of sound: Frequency=5 MHz, Pulse-echo method

OCCOCCOCCO [triethylene glycol]
[1]
Conditions | mass density [kg/m3] | speed of sound [m/s]
278.15 K | 1135.14 ± 0.34 | –
283.15 K | 1131.29 ± 0.34 | –
288.15 K | 1127.43 ± 0.33 | 1643.9 ± 1.4
293.15 K | 1123.56 ± 0.33 | 1629 ± 1.4
298.15 K | 1119.69 ± 0.33 | 1613.5 ± 1.4
303.15 K | 1115.81 ± 0.32 | 1599.1 ± 1.4
308.15 K | 1111.92 ± 0.32 | 1584.6 ± 1.4
313.15 K | 1108.03 ± 0.32 | 1569.1 ± 1.4
318.15 K | 1104.13 ± 0.31 | 1554.7 ± 1.4
323.15 K | 1100.22 ± 0.31 | –
328.15 K | 1096.3 ± 0.31 | –
333.15 K | 1092.38 ± 0.3 | –

O [water]
[1]
Conditions | mass density [kg/m3] | speed of sound [m/s]
278.15 K | 999.965 ± 0.11 | –
283.15 K | 999.698 ± 0.11 | –
313.15 K | – | 1528.8 ± 0.99
318.15 K | – | 1536.7 ± 0.99
323.15 K | 988.027 ± 0.11 | –
328.15 K | 985.682 ± 0.11 | –
333.15 K | 983.186 ± 0.11 | –

O [water] + OCCOCCOCCO
[2]
Conditions | mass density [kg/m3] | speed of sound [m/s]
278.15 K | 999.965 ± 0.11 | –
283.15 K | 999.698 ± 0.11 | –
313.15 K | – | 1528.8 ± 0.99
318.15 K | – | 1536.7 ± 0.99
323.15 K | 988.027 ± 0.11 | –
328.15 K | 985.682 ± 0.11 | –
333.15 K | 983.186 ± 0.11 | –
